Key:
Assay type in all cases: cell-based, mouse
CREB = experiment: Immunoblot of CREB in Ppara-null hippocampal neurons transduced with Ppara constructs
Protocol: (§1) (FIG. 17A) Immunoblot analyses followed by densitometric analyses of NR2A (FIG. 17B), GluR1 (FIG. 17C) and CREB (FIG. 17D) were performed in Ppara-null and WT hippocampal neurons treated with 5 μM HEX, 5 μM OCT and 50 μM HMB. Data are mean±SD of three different experiments. ^ap<0.05 versus WT-control. Immunocytochemical analyses of NR2A (FIG. 17E) and GluR1 (FIG. 17F) in WT and Ppara-null hippocampal neurons treated with HEX, OCT and HMB. Hippocampal neurons were transduced with lenti-GFP for 48 h followed by treatment with different ligands. Immunoblot analyses followed by relative densitometric analyses of CREB in Ppara-null hippocampal neurons transduced with lentivirions containing different Ppara constructs followed by treatment with HEX (FIG. 17G-H), OCT (FIG. 17I-J) and HMB (FIG. 17K-L). Bands were scanned and presented as relative to control (FIG. 17H, HEX; FIG. 17J, OCT; FIG. 17L, HMB). Data are mean±SD of three different experiments. ^ap<0.05 vs FLPpara control.
(§2) For whole-cell and tissue lysates, samples were homogenized in RIPA buffer containing protease and phosphatase inhibitors (Sigma), passed 10 times through a 26-gauge needle, rotated end over end for 30 min at 4° C., and centrifuged for 10 min at 18,000×g. The supernatant was aliquoted and stored at −80° C. until use. Protein concentrations were determined using a NanoDrop 2000 (Thermo Fisher), and 15-30 μg sample was heat-denatured and resolved on 10% or 12% polyacrylamide-SDS gels, transferred to 0.45 μm nitrocellulose membranes under semidry conditions (15V for 12 min). Membranes were blocked for 1 h with blocking buffer (Li-Cor), incubated with primary antibodies overnight at 4° C. under shaking conditions, washed, incubated with IR-dye-labeled secondary antibodies (1:17,000; Li-Cor) for 45 min at room temperature, washed, and visualized with the Odyssey Infrared Imaging System (Li-Cor). Blots were converted to grayscale and then binary, analyzed using Fiji, and normalized to appropriate loading controls.

[1] = system: PPRE-driven luciferase activity; experiment: PPRE-luciferase assay in Pparb-null astrocytes with PPARγ antagonist GW9662; conditions: for PPRE luciferase activity: Pparb-null astrocytes; for effect of GW9662 on ligand-mediated increase in PPRE-luciferase activity: Pparb-null astrocytes pre-treated with GW9662
Protocol: FIG. 16A) Pparb-null primary astrocytes plated at 60-70% confluence in 12-well plates were transfected with 0.25 μg of tkPPREx3-Luc (a PPRE-dependent luciferase reporter construct). Twenty-four hours after transfection, cells were treated with different concentrations of GW9662 for 30 min followed by stimulation with rosiglitazone. After 4 h, luciferase activities were assayed. […] After transfection, cells were also treated with GW9662 followed by stimulation with OCT (FIG. 16B), HEX (FIG. 16C) and HMB (FIG. 16D).
These astrocytes were pre-treated with PPARγ-antagonist GW9662 to nullify the involvement of PPARγ in reporter assay.

[2] = system: PPRE-driven luciferase activity; experiment: PPRE-luciferase assay in Ppara-null hippocampal neurons transduced with Ppara constructs
Protocol: Astrocytes plated at 60-70% confluence were transfected with tk-PPREx3-Luc, a PPRE-dependent luciferase reporter construct. After 24 h of transfection, cells were treated with different concentrations of HEX (FIG. 10A), OCT (FIG. 10B) and HMB (FIG. 10C) for 4 h followed by monitoring luciferase activity. Under similar experimental condition, MTT was performed to understand the effect of these ligands on cell viability (FIG. 10D, HEX; FIG. 10E, OCT; FIG. 10F, HMB). Results are mean±SD of three independent experiments. ^ap<0.001 vs. control. Ppara-null astrocytes were transduced with lentivirions containing empty vector (FIG. 10G), FL-Ppara (FIG. 10H), Y314D-Ppara (FIG. 10I), Y464D-Ppara (FIG. 10J), and Y314D/Y464D-Ppara (FIG. 10K) for 48 h followed by transfection with tk-PPREx3-Luc. After 24 h of transfection, cells were treated with different doses of HEX, OCT and HMB for 4 h followed by monitoring luciferase activity. PPRE luciferase activity was assayed in Ppara-null astrocytes transduced with lentivirions containing empty vector (FIG. 10L), FL-Ppara (FIG. 10M), Y314D-Ppara (FIG. 10N), Y464D-Ppara (FIG. 10O), and Y314D/Y464D-Ppara (FIG. 10P) after treatment with different doses of WY14643, fenofibrate, and clofibrate. PPRE luciferase activity was assayed in primary hippocampal neurons transduced with lentivirions containing empty vector (FIG. 10Q), FL-Ppara (FIG. 10R), Y314D-Ppara (FIG. 10S), Y464D-Ppara (FIG. 10T), and Y314D/Y464D-Ppara (FIG. 10U) after treatment with different doses of HEX, OCT and HMB. Results are mean±SD of three independent experiments. ^ap<0.001 vs. control.
(§3) Isolation of Mouse Hippocampal Neurons: Hippocampal neurons were isolated from fetuses (E18) of pregnant female Ppara-null and strain-matched WT littermate mice as described by us^6,13,35-36 with some modifications. Briefly, dissection and isolation procedures were performed in an ice-cold, sucrose buffer solution (sucrose 0.32 M, Tris 0.025 M; pH 7.4)^37. The skin and the skull were carefully removed from the brain by scissors followed by peeling off the meninges by a pair of fine tweezers. Next, a fine incision was made in the middle line around the circle of Willis and medial temporal lobe was opened up. Hippocampus was isolated as a thin slice of tissue located near the cortical edge of medial temporal lobe. Hippocampal tissues isolated from all fetal pups (n>10) were combined together and homogenized with 1 ml of trypsin for 5 minutes at 37° C. followed by neutralization of trypsin. The single cell suspension of hippocampal tissue was plated in the poly-D-lysine pre-coated 75 mm flask. Five min after plating, the supernatants were carefully removed and replaced with complete neurobasal media. The next day, 10 μM AraC was added to remove glial contamination in the neuronal culture. The pure cultures of hippocampal neurons were allowed to differentiate fully for 9-10 days before treatment^35,36,38.

NR2A, GluR1 and CREB = experiment: Immunoblot and immunofluorescence of synaptic molecules in WT hippocampal neurons; conditions: 5 μM HEX, 5 μM OCT, 50 μM HMB
Protocol: as §1, §3, §2

SMILES | expression of CREB (CREB; FL-Ppara) | expression of CREB (CREB; lenti-Y314D-Ppara) | expression of CREB (CREB; lenti-Y464D-Ppara) | expression of CREB (CREB; lenti-Y464D/Y314D-Ppara) | PPRE luciferase activity [1] | effect of GW9662 on ligand-mediated increase in PPRE-luciferase activity [1] | PPRE-luciferase activity ([2]; lenti-Y314D/Y464D-Ppara) | PPRE-luciferase activity ([2]; lenti-Y464D-Ppara) | expression of CREB (NR2A, GluR1 and CREB) | expression of GluR1 (NR2A, GluR1 and CREB) | expression of NR2A (NR2A, GluR1 and CREB)
CCCCCCCCCCCCCCCC(N)=O [HEX, hexadecanamide] | stimulated | only partially restored | remained unable to increase | remained unable to increase | markedly increased | remained unable to inhibit | completely abrogated | completely abrogated | upregulated | upregulated | upregulated
CCOC(=O)C(C)(C)C(C)O (stereo not drawn) [HMB] | stimulated | only partially restored | remained unable to increase | remained unable to increase | markedly increased | remained unable to inhibit | completely abrogated | completely abrogated | upregulated | upregulated | upregulated
CCCCCCCCC=CCCCCCCCC(N)=O [OCT, 9-octadecenamide] | stimulated | only partially restored | remained unable to increase | remained unable to increase | markedly increased | remained unable to inhibit | completely abrogated | completely abrogated | upregulated | upregulated | upregulated
